What all share (assay type): cell-based
In assay [1] the test system is human PBMCs. Briefly: Intracellular cytokine staining in cell populations of human PBMC. The following applies: 2 days after stimulation. The method, then: In a first experiment, human PBMCs from two different donors were incubated overnight in the presence or absence of compound 10 (10 μM). […] The cells were fixed four hours later and stained with antibodies for cell type markers (FITC-anti-CD3 and PerCP-C95.5-anti-CD4) and IL-2 (PE-anti-IL-2). The cells were analyzed by flow cytometry. The fraction of cells with intracellular IL-2 (PE-labeled) was then determined in the CD4^+ and CD8^+ T cell populations, as well as in non-T cells.
In a second experiment, human PBMCs from two different donors were stimulated with anti-CD3 and anti-CD28 antibodies and incubated in the absence or presence of increasing concentrations of compound 10 (0, 0.1, 0.3, 1.0, or 3.0 μM). The vesicular transport was blocked two days later with GolgiStop™. The cells were fixed four hours later and stained with antibodies for cell type markers (FITC-anti-CD3, PerCP-Cy5.5-anti-CD4, PE-anti-CD56 and Pacific Blue-anti-CD16) and either of the cytokines IL-2, IL-10 and IFN-γ (anti-cytokine antibodies were all APC-labeled). The cells were analyzed by flow cytometry. The fraction of cells with intracellular IL-2, IFN-γ, IL-10 and […] was then determined in different cellular populations.

The subject of assay [2] is purified human T cells. Nature of the assay: Cytokines of purified human T cells activated with K562 cells, with or without PS liposomes, tumor exosomes, GPR174 inhibitor. To be noted: for IFN-γ FC (fold change), Compound 10 vs Vehicle / IL-2 FC (fold change), Compound 10 vs Vehicle / TNF FC (fold change), Compound 10 vs Vehicle: stimulated human T cells, compound 10, 0.5 μM. The method, then: Purified human T cells (Astarte Biologies, Inc) were activated in the presence of K562 cells (as artificial antigen presenting cells) presenting anti-CD3 and CD80.Fc via Fc-receptor binding, in 96-well U-bottom plates containing X-vivo-15 media in the following conditions:
Anti-CD3 (clone UCHT1, 0.5 μg/mL)
CD80.Fc fusion protein (R&D Systems, 2 μg/mL)
Exosomes from human breast cancer tumor cell line MDA-MB-231 (12 μg/mL) (EXOP-105A-1 from System Biosciences, LLC)
GPR174 inhibitor (compound 10, 0.5 μM or 3 μM)
Cells were cultured for 24 hours and supernatants were evaluated for cytokine concentrations (Legendplex, Biolegend).

The test system of assay [3] is human T cells. Briefly: PD-L1, TIGIT and AREG expression on human T cells in PBMC. The following applies: 1.25 or 5 μM; one day post-stimulation. The method, then: PBMC cells from a single donor mixed with additional irradiated antigen-presenting cells (APC) and anti-CD3 antibodies (UCHT1) were incubated in the presence of various concentrations of GPR174 inhibitory compound 10 (1.25 to 5 μM) or equivalent concentrations of vehicle (DMSO). The cells were analyzed by flow cytometry for expression of CD4, CD8, PD-L1, TIGIT and AREG.

Setting [4] is: in the presence of Exosomes (human breast cancer tumor-derived).
Setting [5] is: in the presence of PS Liposomes.

As for `CC1CCN(c2cc(N3CCN(S(=O)(=O)c4ccccc4)CC3)c([N+](=O)[O-])cc2F)CC1` [compound 10], in assay [1] (0.1-3.0 μM), the “intracellular IFN-γ production by cell type” value is “enhanced in CD4 and CD8 positive T cells, as well as in NK cells”; the “intracellular IL-2 production by cell type” value was “induced specifically in T cells, both CD4 and CD8 positive”; the “intracellular IL-10 production by cell type” value is “induced specifically in T cells, both CD4 and CD8 positive”. For the same molecule, the “intracellular TNF-α production by cell type” value in assay [1] (0.1-10 μM) is “enhanced in CD4 and CD8 positive T cells, as well as in NK cells”. Further, the “IL-2 production, fold change by compound 10 in the absence of PS liposomes (FIG. 65)” value in assay [2] (compound 10 3 μM) stood at 1.3 fold. Further, the “IL-2 production, fold change by compound 10 in the presence of PS liposomes (FIG. 65)” value in assay [2] (compound 10 3 μM, PS liposomes 1 μM) is given as 2.4 fold. Further, in assay [2] (setting [4]), the “IFN-γ FC (fold change), Compound 10 vs Vehicle” value (from here on “IFN-γ FC (fold change)”) is reported as 1.4; the “IL-2 FC (fold change), Compound 10 vs Vehicle” value (shortened to “IL-2 FC (fold change)”) is recorded as 1.7; the “TNF FC (fold change), Compound 10 vs Vehicle” value (shortened to “TNF FC (fold change)”) amounted to 1.7. In addition, in assay [2] (in the presence of Media), the “IFN-γ FC (fold change)” value is recorded as 1.1; the “IL-2 FC (fold change)” value is 1.2; the “TNF FC (fold change)” value is reported as 1.4. Also, in assay [2] (setting [5]), the “IFN-γ FC (fold change)” value was found to be 1.3; the “IL-2 FC (fold change)” value worked out at 1.4; the “TNF FC (fold change)” value came out at 1.7. In assay [3], the “AREG expression in CD4+ T cells” value was “reduced”, the “PD-L1 expression in CD4+ T cells” value is listed as “reduced” and the “TIGIT expression in CD8+ T cells” value was “reduced”.
